Assay results as given in patent publication US5246830A, “Enzymatic process for the determination of β-lactam antibiotics” (Ucb Bioproducts, S.A., priority 1990, dated 1993).

Assays:
[1] = target: T1, enzyme R39 (Actinomadura sp. R39, UniProt P39045); test: Hydrolysis of thioester-type substrate by enzyme R39 and its activation by D-amino acids; format: biochemical; conditions: for activating effect on the thioester hydrolysis reaction by enzyme R39: thioester-type substrate of formula I; for activity of enzyme R39 on the substrate: one unit hydrolyzes 1 micromole of substrate per minute at 47° C.
From the text: In other words, in the presence of this activator, the rate of hydrolysis of the substrate by enzyme R39 is 40 times higher.

[2] = target: T2, enzyme R39 (soluble D-alanyl-D-alanine carboxypeptidase produced by Actinomadura R39) (Actinomadura sp. R39, UniProt P39045); test: Enzymatic determination of penicillin G in milk with [(N-phenylacetyl-D-alanyl)thio]-acetic acid as substrate (Example 4); format: biochemical; conditions: Example 4, Table IV
T2 construct: added to milk or serum samples
Protocol: The process is the same as in example 3, except that, after the first incubation, 120 μl of an aqueous solution containing 5 mg/ml of [(N-phenylacetyl-D-alanyl)thio]-acetic acid are added.

[3] = target: T2, enzyme R39 (soluble D-alanyl-D-alanine carboxypeptidase produced by Actinomadura R39); test: Enzymatic determination of cephapirin in milk (Example 6); format: biochemical
Protocol: The process is the same as in example 3, but the samples of 3 ml of milk contain known concentrations of cephapirin.

[4] = target: T1, enzyme R39; conditions: about 20 μl milk, 3 picomoles enzyme R39, cited from earlier work
[5] = system: cells or cell parts of Bacillus stearothermiphilus; conditions: enzyme-tagged antibiotic, visual colorimetric method; cited from earlier work

T2 sequence (P39045 50-515): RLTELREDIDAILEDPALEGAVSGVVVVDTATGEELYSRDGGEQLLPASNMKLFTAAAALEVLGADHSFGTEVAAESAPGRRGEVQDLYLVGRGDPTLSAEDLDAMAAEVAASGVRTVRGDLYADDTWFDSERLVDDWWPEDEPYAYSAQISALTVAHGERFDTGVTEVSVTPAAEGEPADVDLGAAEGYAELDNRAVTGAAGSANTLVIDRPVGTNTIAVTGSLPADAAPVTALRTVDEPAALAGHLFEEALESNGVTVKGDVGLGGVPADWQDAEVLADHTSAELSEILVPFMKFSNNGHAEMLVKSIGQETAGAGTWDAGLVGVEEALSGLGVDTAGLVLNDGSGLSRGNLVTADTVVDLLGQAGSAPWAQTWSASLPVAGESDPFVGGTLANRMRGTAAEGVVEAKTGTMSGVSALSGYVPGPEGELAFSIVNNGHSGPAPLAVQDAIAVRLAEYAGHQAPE
T1 sequence (P39045 50-515): as above

CC[C@@H](N)C(=O)O [D-2-aminobutyric acid]
activating effect on the thioester hydrolysis reaction by enzyme R39 [1]: best activators

C[C@@H](N)C(=O)O [D-alanine]
activating effect on the thioester hydrolysis reaction by enzyme R39 [1]: best activators

N=C(N)NCCC[C@@H](N)C(=O)O [D-arginine]
activating effect on the thioester hydrolysis reaction by enzyme R39 [1]: best activators

N[C@H](Cc1c[nH]cn1)C(=O)O [D-histidine]
activating effect on the thioester hydrolysis reaction by enzyme R39 [1]: best activators

CSCC[C@@H](N)C(=O)O [D-methionine]
activating effect on the thioester hydrolysis reaction by enzyme R39 [1]: best activators

N[C@H](Cc1ccccc1)C(=O)O [D-phenylalanine]
activating effect on the thioester hydrolysis reaction by enzyme R39 [1]: best activators

N[C@H](CO)C(=O)O [D-serine]
activating effect on the thioester hydrolysis reaction by enzyme R39 [1]: best activators

N[C@H](Cc1c[nH]c2ccccc12)C(=O)O [D-tryptophan]
activating effect on the thioester hydrolysis reaction by enzyme R39 [1]: best activators

CC(C)[C@@H](N)C(=O)O [D-valine]
activating effect on the thioester hydrolysis reaction by enzyme R39 [1]: best activators

C[C@@H](NC(=O)c1ccccc1)C(=O)SCC(=O)O [[(N-benzoyl-D-alanyl)thio]-acetic acid]
performance as substrate for enzyme R39 ([1]; among thioesters of formula I): best results | activity of enzyme R39 on the substrate ([1]; in the absence of D-alanine): 8 units per milligram of enzyme | activity of enzyme R39 on the substrate ([1]; in the presence of D-alanine): 320 units per milligram of enzyme

C[C@@H](NC(=O)Cc1ccccc1)C(=O)SCC(=O)O [[(N-phenylacetyl-D-alanyl)thio]-acetic acid]
process carried out with this compound as substrate [2]: successfully

CC(=O)OCC1=C(C(=O)O)N2C(=O)[C@@H](NC(=O)CSc3ccncc3)[C@H]2SC1 [cephapirin]
Coloration ([3]; cephapirin 0.002 μg/ml in 3 ml milk): medium yellow | Coloration ([3]; cephapirin 0.003 μg/ml in 3 ml milk): pale yellow | Coloration ([3]; cephapirin 0.004 μg/ml in 3 ml milk): white | Coloration ([3]; cephapirin 0.006 μg/ml in 3 ml milk): white | cephapirin concentration in milk detected visually ([3]; in 15 minutes time): 0.004 µg/mL

NCC(=O)O [glycine]
activating effect on the thioester hydrolysis reaction by enzyme R39 [1]: activating effect

penicillin
penicillin concentration in milk quantitatively determined (spectrophotometer) [4]: 0.02 I.U./ml | penicillin concentration in milk qualitatively determined by the visual method ([4]; in less than one hour): more than 0.09 I.U./ml | penicillin concentration threshold detected in milk [5]: 0.05 IU/ml
